Paper PMC3662613 (Chemmedchem, 2013)
Read-outs that look alike come from different tables or passages of the source.

Key:
SW403 = test: Cytotoxicity / antiproliferative activity; assay type: cell-based; settings: Homo sapiens
HCT15 = test: Cytotoxicity / antiproliferative activity; assay type: cell-based; settings: Homo sapiens
[1] = system: ODD-Luc (p97-independent proteasome substrate); test: ODD-Luc reporter degradation assay, dual reporter HeLa cell line; assay type: cell-based; settings: Homo sapiens, read-out: IC50 ODD-Luc
p97 ATPase = p97 ATPase (Homo sapiens, UniProt P55072); test: p97 ATPase assay; assay type: biochemical; settings: triplicate, mean ±SD
p97 ATPase, sequence (P55072 whole entry): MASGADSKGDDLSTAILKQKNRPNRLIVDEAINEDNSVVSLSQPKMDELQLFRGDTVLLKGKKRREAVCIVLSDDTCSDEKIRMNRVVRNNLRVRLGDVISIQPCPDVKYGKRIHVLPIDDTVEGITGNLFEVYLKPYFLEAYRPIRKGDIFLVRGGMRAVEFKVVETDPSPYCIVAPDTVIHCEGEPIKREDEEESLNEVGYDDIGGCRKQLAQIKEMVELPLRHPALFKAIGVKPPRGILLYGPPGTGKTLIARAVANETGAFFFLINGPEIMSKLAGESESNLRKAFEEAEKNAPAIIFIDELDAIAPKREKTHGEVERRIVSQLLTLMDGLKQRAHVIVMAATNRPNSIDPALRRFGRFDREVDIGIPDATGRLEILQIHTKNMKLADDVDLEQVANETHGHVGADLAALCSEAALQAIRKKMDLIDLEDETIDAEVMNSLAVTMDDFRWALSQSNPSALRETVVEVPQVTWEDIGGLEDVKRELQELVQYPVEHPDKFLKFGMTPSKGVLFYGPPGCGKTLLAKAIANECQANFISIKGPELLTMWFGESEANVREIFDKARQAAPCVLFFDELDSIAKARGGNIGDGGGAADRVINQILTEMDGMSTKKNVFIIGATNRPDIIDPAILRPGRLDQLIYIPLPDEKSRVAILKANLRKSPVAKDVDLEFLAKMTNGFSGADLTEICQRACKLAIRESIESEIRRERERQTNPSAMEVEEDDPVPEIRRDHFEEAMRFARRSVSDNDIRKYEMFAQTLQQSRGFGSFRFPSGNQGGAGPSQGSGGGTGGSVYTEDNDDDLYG

[2] = system: Ub^G76V–GFP (p97-dependent reporter); test: Ub^G76V–GFP reporter degradation assay, dual reporter HeLa cell line; assay type: cell-based; settings: read-out: IC50 Ub^G76V–GFP, triplicate, mean ±SD
∼170 kinases = test: KiNativ kinase profiling, whole panel, PC3 cell lysate; assay type: binding, Homo sapiens; settings: 20 μM
[3] = system: HMEC, PHMLEB, PHMLER cells; test: Cellular viability; assay type: cell-based, human; settings: 24 h, CellTiter-Glo
ubiquitin conjugates = test: Ubiquitin conjugate accumulation immunoblot, SW403 cells; settings: 5–10 μM; nuclear plus membrane and cytosolic compartments
[4] = SW-403, 24 h, read-out: Cytotoxicity GI50 SW403 24 h
[5] = SW-403, 72 h, read-out: Cytotoxicity GI50 SW403 72 h
[6] = HCT-15, 24 h, read-out: Cytotoxicity GI50 HCT15 24 h
[7] = HCT-15, 72 h, read-out: Cytotoxicity GI50 HCT15 72 h

| IC50 [1] | IC50 (p97 ATPase; IC50 ATPase) | Compound | GI50 (SW403; [4]) | GI50 (SW403; [5]) | GI50 (HCT15; [6]) | GI50 (HCT15; [7]) | further results |
| --- | --- | --- | --- | --- | --- | --- | --- |
| > 20 µM |  | COc1cccc2c(NCc3ccccc3)nc(N3CCOc4ccccc43)nc12 [compound 38, 2-(2H-Benzo[b][1,4]oxazin-4(3H)-yl)-N-benzyl-8-methoxyquinazolin-4-amine] | 43 ± 11 µM | 13 ± 4 µM | 25 ± 5 µM | 12 ± 3 µM |  |
| 27 ± 5 µM |  | COCCOc1cccc2c(NCc3ccccc3)nc(N3CCOc4ccccc43)nc12 [compound 34, 2-(2H-Benzo[b][1,4]oxazin-4(3H)-yl)-N-benzyl-8-(2-methoxyethoxy)quinazolin-4-amine] | 15 ± 7 µM | 7.9 ± 2.7 µM | 12 ± 4 µM | 9 ± 3 µM |  |
|  | 0.5 ± 0.1 µM | COc1cccc2c(NCc3ccccc3)nc(-n3c(N)nc4cccc(F)c43)nc12 [compound 28, 2-(2-Amino-7-fluoro-1H-benzo[d]imidazol-1-yl)-N-benzyl-8-methoxyquinazolin-4-amine] |  |  |  |  |  |
|  | 0.4 ± 0.08 µM | N#CCOc1cccc2c(NCc3ccccc3)nc(N3CCOc4ccccc43)nc12 [compound 39, 2-((2-(2H-Benzo[b][1,4]oxazin-4(3H)-yl)-4-(benzylamino)quinazolin-8-yl)oxy)acetonitrile] |  |  |  |  |  |
|  | 0.043 ± 0.01 µM | COc1cccc2c(NCc3ccccc3)nc(-n3c(N)nc4c(F)cccc43)nc12 [compound 27, 2-(2-Amino-4-fluoro-1H-benzo[d]imidazol-1-yl)-N-benzyl-8-methoxyquinazolin-4-amine] |  |  |  |  |  |
|  | 0.045 ± 0.006 µM | COc1cccc2c(NCc3ccccc3)nc(-n3c(N)nc4c(C)cccc43)nc12 [compound 29, 2-(2-Amino-4-methyl-1H-benzo[d]imidazol-1-yl)-N-benzyl-8-methoxyquinazolin-4-amine] |  |  |  |  |  |
| > 20 µM |  | OCCOc1cccc2c(NCc3ccccc3)nc(N3CCOc4ccccc43)nc12 [compound 33, 2-((2-(2H-Benzo[b][1,4]oxazin-4(3H)-yl)-4-(benzylamino)quinazolin-8-yl)oxy)ethanol] | 42 ± 9 µM | 9.4 ± 2.9 µM | 28 ± 3 µM | 17 ± 5 µM |  |
|  | 25 ± 8 µM | COc1cccc2c(NCc3ccccc3)nc(-n3c(N)nc4cc(Cl)c(Cl)cc43)nc12 [compound 21, 2-(2-Amino-5,6-dichloro-1H-benzo[d]imidazol-1-yl)-N-benzyl-8-methoxyquinazolin-4-amine] |  |  |  |  |  |
| 61 ± 6 µM |  | CCN(CC)CCOc1cccc2c(NCc3ccccc3)nc(N3CCOc4ccccc43)nc12 [compound 35, 2-(2H-Benzo[b][1,4]oxazin-4(3H)-yl)-N-benzyl-8-(2-(diethylamino)ethoxy)quinazolin-4-amine] | 11 ± 5 µM | 3.9 ± 1 µM | 13 ± 5 µM | 7.1 ± 2.5 µM |  |
| > 20 µM |  | COc1cccc2c(NCc3ccc(F)cc3)nc(N3CCOc4ccccc43)nc12 [compound 40, 2-(2H-Benzo[b][1,4]oxazin-4(3H)-yl)-N-(4-fluorobenzyl)-8-methoxyquinazolin-4-amine] | 21 ± 6 µM | 9.4 ± 2.6 µM | 27 ± 4 µM | 8.9 ± 2.3 µM |  |

The remaining lines, values behind:

| Compound | IC50 [1] | IC50 (p97 ATPase; IC50 ATPase) | GI50 (SW403; [4]) | GI50 (SW403; [5]) | GI50 (HCT15; [6]) | GI50 (HCT15; [7]) | further results |
| --- | --- | --- | --- | --- | --- | --- | --- |
| 2-(2-Amino-5-chloro-1H-benzo[d]imidazol-1-yl)-N-benzyl-8-methoxyquinazolin-4-amine and 2-(2-Amino-6-chloro-1H-benzo[d]imidazol-1-yl)-N-benzyl-8-methoxyquinazolin-4-amine [compound 23] |  |  |  |  |  |  | IC50 (p97 ATPase; read-out: IC50 ATPase): 0.7 ± 0.3 µM; IC50 [2]: 31 ± 7 µM |
| CCCCNc1ncc2c(-c3ccc(F)cc3)nn(C[C@H]3CC[C@H](N)CC3)c2n1 [pyrazolopyrimidine, reference compound] |  |  |  |  |  |  | number of protein kinases (domains) with >50% inhibition of labeling (∼170 kinases): 56 |
| c1ccc(Nc2nc(Nc3ccccc3)c3ccccc3n2)cc1 [compound 9, N^2,N^4-Diphenylquinazoline-2,4-diamine] |  | 2.6 ± 0.8 µM |  |  |  |  |  |
| CO/C1=C\C(C)=C\[C@@H](C)[C@@H](O)[C@@H](C)C/C(C)=C/C=C/[C@H](OC)[C@@H]([C@@H](C)[C@@H](O)[C@H](C)[C@@]2(O)C[C@@H](O)[C@H](C)[C@@H](C(C)C)O2)OC1=O [bafilomycin, reference compound] |  |  |  |  |  |  | potency on normal vs immortalized and tumorigenic cell lines [3]: equal potency |
| 2-(2-Amino-5-methyl-1H-benzo[d]imidazol-1-yl)-N-benzyl-8-methoxyquinazolin-4-amine and 2-(2-Amino-6-methyl-1H-benzo[d]imidazol-1-yl)-N-benzyl-8-methoxyquinazolin-4-amine [compound 25] |  |  |  |  |  |  | IC50 (p97 ATPase; read-out: IC50 ATPase): 0.24 ± 0.06 µM; IC50 [2]: 2.5 ± 0.5 µM |
| CC(C)C[C@H](NC(=O)[C@H](Cc1ccccc1)NC(=O)c1cnccn1)B(O)O [bortezomib, reference compound] |  |  |  |  |  |  | potency on normal vs immortalized and tumorigenic cell lines [3]: equal potency |
| COc1cccc2c(NCc3ccccc3)nc(Nc3nc4ccccc4n3C)nc12 [compound 19, N^4-Benzyl-8-methoxy-N^2-(1-methyl-1H-benzo[d]imidazol-2-yl)quinazoline-2,4-diamine] | 10 ± 2 µM |  | 1.7 ± 0.7 µM | 1.4 ± 0.5 µM | 1.7 ± 0.8 µM | 1.4 ± 0.5 µM |  |
| c1ccc(CNc2nc(N3CCOc4ccccc43)nc3ccccc23)cc1 [compound 15, 2-(2H-Benzo[b][1,4]oxazin-4(3H)-yl)-N-benzylquinazolin-4-amine] | > 20 µM |  | 21 ± 5 µM | 13 ± 4 µM | 24 ± 3 µM | 10 ± 3 µM |  |
| COc1cccc2c(NCc3ccccc3)nc(NCc3ccccc3)nc12 [compound 14, N^2,N^4-Dibenzyl-8-methoxyquinazoline-2,4-diamine] | 6.5 ± 1.1 µM |  | 0.8 ± 0.3 µM | 0.5 ± 0.2 µM | 1.1 ± 0.3 µM | 0.8 ± 0.3 µM |  |
| 2-(2-Amino-5-methoxy-1H-benzo[d]imidazol-1-yl)-N-benzyl-8-methoxyquinazolin-4-amine and 2-(2-Amino-6-methoxy-1H-benzo[d]imidazol-1-yl)-N-benzyl-8-methoxyquinazolin-4-amine [compound 26] |  |  |  |  |  |  | IC50 (p97 ATPase; read-out: IC50 ATPase): 0.48 ± 0.09 µM; IC50 [2]: 0.96 ± 0.2 µM |
| CCCCOc1cccc2c(NCc3ccccc3)nc(N3CCOc4ccccc43)nc12 [compound 37, 2-(2H-Benzo[b][1,4]oxazin-4(3H)-yl)-N-benzyl-8-butoxyquinazolin-4-amine] |  | 2.63 ± 0.7 µM |  |  |  |  |  |
| 2-(2-Amino-5-fluoro-1H-benzo[d]imidazol-1-yl)-N-benzyl-8-methoxyquinazolin-4-amine and 2-(2-Amino-6-fluoro-1H-benzo[d]imidazol-1-yl)-N-benzyl-8-methoxyquinazolin-4-amine [compound 30] |  |  |  |  |  |  | IC50 (p97 ATPase; read-out: IC50 ATPase): 0.08 ± 0.02 µM; IC50 [2]: 6.8 ± 1 µM |
| 2-(2-Amino-5-bromo-1H-benzo[d]imidazol-1-yl)-N-benzyl-8-methoxyquinazolin-4-amine and 2-(2-Amino-6-bromo-1H-benzo[d]imidazol-1-yl)-N-benzyl-8-methoxyquinazolin-4-amine [compound 24] |  |  |  |  |  |  | IC50 (p97 ATPase; read-out: IC50 ATPase): 0.8 ± 0.3 µM; IC50 [2]: 30 ± 10 µM |
| c1ccc(CNc2nc(NCc3ccccc3)c3ccccc3n2)cc1 [DBeQ, N^2,N^4-dibenzylquinazoline-2,4-diamine] | 56 ± 14 µM | 1.6 µM | 2.2 ± 0.6 µM | 1.4 ± 0.5 µM | 3.2 ± 1 µM | 1.8 ± 0.7 µM | accumulation of ubiquitin conjugates (ubiquitin conjugates): caused accumulation of ubiquitin conjugates; potency on normal vs immortalized and tumorigenic cell lines [3]: slightly greater potency toward the immortalized and transformed cells |
| c1ccc(CNc2nc(N3CCOc4ccccc43)nc3ccsc23)cc1 [compound 17, 2-(2H-Benzo[b][1,4]oxazin-4(3H)-yl)-N-benzylthieno[3,2-d]pyrimidin-4-amine] | 17 ± 2 µM |  | 18 ± 10 µM | 9.7 ± 3.7 µM | 37 ± 7 µM | 16 ± 5 µM |  |
